From the supplement of paper PMC4862054

Legend:
Details in all cases: incubation time: 72 h
BT-549 [1] = assay: drug sensitivity score (DSS), CellTox Green (DSS (AUC-based score)); higher = stronger drug effect (viability inhibition or cytotoxicity); extreme values may be limits of the assay
Summary of the method: (§1)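 The drug sensitivity score was computed from the area under the fitted dose-response curve. Breast cancer cell lines in 20 µl suspension went into 384-well plates holding compound at 5 concentrations (10-fold steps over a 10,000-fold, compound-specific range) for 72 h of incubation. CellTox Green fluorescence (485/520 nm) was read before CellTiter-Glo luminescence, the latter after 10 min at room temperature, and each plate was normalised to 0.1 % DMSO and a positive kill control.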

HCC1937 [2] = assay: as above
Summary of the method: as §1

MCF-10A = assay: as above
Summary of the method: as §1

MDA-MB-468 [3] = assay: as above
Summary of the method: as §1

CAL-51 [4] = assay: as above
Summary of the method: as §1

HDQ-P1 [5] = assay: as above
Summary of the method: as §1

CAL-148 [6] = assay: as above
Summary of the method: as §1

MDA-MB-453 [7] = assay: as above
Summary of the method: as §1

BT-549 [8] = assay: drug sensitivity score (DSS), CellTiter-Blue viability (DSS (AUC-based score)); higher = stronger viability inhibition; extreme values may be limits of the assay
Protocol: (§2)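 DSRT with the CellTiter-Blue (resazurin reduction) viability readout, fluorescence 560/590 nm, 72 h incubation. Plates were normalised to DMSO and benzethonium chloride controls. DSS is computed from the area under the fitted dose-response curve (5 or 9 concentrations).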

HCC1937 [9] = assay: as above
Protocol: as §2

CAL-120 = assay: as above
Protocol: as §2

Hs578T = assay: as above
Protocol: as §2

SK-BR-3 = assay: as above
Protocol: as §2

CAL-85-1 = assay: as above
Protocol: as §2

HCC1143 = assay: as above
Protocol: as §2

MDA-MB-468 [10] = assay: as above
Protocol: as §2

MDA-MB-231 = assay: as above
Protocol: as §2

HCC1599 = assay: as above
Protocol: as §2

MDA-MB-436 = assay: as above
Protocol: as §2

CAL-51 [11] = assay: as above
Protocol: as §2

HDQ-P1 [12] = assay: as above
Protocol: as §2

CAL-148 [13] = assay: as above
Protocol: as §2

DU-4475 = assay: as above
Protocol: as §2

MDA-MB-453 [14] = assay: as above
Protocol: as §2

MFM-223 = assay: as above
Protocol: as §2

BT-474 = assay: as above
Protocol: as §2

| Compound | drug sensitivity score (BT-549 [1]) | drug sensitivity score (HCC1937 [2]) | drug sensitivity score (MCF-10A) | drug sensitivity score (MDA-MB-468 [3]) | drug sensitivity score (CAL-51 [4]) | drug sensitivity score (HDQ-P1 [5]) | drug sensitivity score (CAL-148 [6]) | drug sensitivity score (MDA-MB-453 [7]) | drug sensitivity score (BT-549 [8]) | drug sensitivity score (HCC1937 [9]) | drug sensitivity score (CAL-120) | drug sensitivity score (Hs578T) | drug sensitivity score (SK-BR-3) | drug sensitivity score (CAL-85-1) | drug sensitivity score (HCC1143) | drug sensitivity score (MDA-MB-468 [10]) | drug sensitivity score (MDA-MB-231) | drug sensitivity score (HCC1599) | drug sensitivity score (MDA-MB-436) | drug sensitivity score (CAL-51 [11]) | drug sensitivity score (HDQ-P1 [12]) | drug sensitivity score (CAL-148 [13]) | drug sensitivity score (DU-4475) | drug sensitivity score (MDA-MB-453 [14]) | drug sensitivity score (MFM-223) | drug sensitivity score (BT-474) |
| --- | --- | --- | --- | --- | --- | --- | --- | --- | --- | --- | --- | --- | --- | --- | --- | --- | --- | --- | --- | --- | --- | --- | --- | --- | --- | --- |
| C[C@]12O[C@H](C[C@]1(O)CO)n1c3ccccc3c3c4c(c5c6ccccc6n2c5c31)CNC4=O [Lestaurtinib] | 2.26 | 0 | 0 | 0 | 0 | 0 | 0 | 0 | 1.24 | 7.15 | 7.43 | 0 | 1.47 | 3.82 | 3.46 | 0 | 0 | 2.58 | 3.43 | 2.4 | 0 | 0 | 8.26 | 6.19 | 5.87 | 0 |
| O=C1c2c(O)ccc(O)c2C(=O)c2c(NCCNCCO)ccc(NCCNCCO)c21 [Mitoxantrone] | 0 | 0 | 0 | 0 | 3.21 | 0 | 3.55 | 0 | 4.76 | 23.1 | 9.16 | 4.05 | 15.3 | 5.25 | 6.5 | 9.75 | 11.8 | 4.36 | 3.16 | 17.6 | 8.81 | 17.4 | 22.7 | 4.9 | 2.58 | 6.48 |
